Laboratory results taken from ChEMBL document CHEMBL1201862, “PubChem BioAssay data set” (2004).
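Dose response: 5 concentrations. Exposure: 48 h. Format: 96-well plates. Endpoint: linear interpolation; highest concentration if not reached. GI50 is the concentration that inhibits growth by half.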 Calls of active or inactive are those of the source. Cut-off read from the data, not from the text of the source: active = GI50 up to about 1.1 µM and inactive = higher.

Tests used:
Assay in all cases: inhibition of tumour cell growth, NCI panel, 48 h
SK-MEL-2 = test system: SK-MEL-2
OVCAR-3 = test system: OVCAR-3
HT-29 = test system: HT-29
T47D = test system: T47D
SNB-19 = test system: SNB-19
SF-268 = test system: SF-268
KM12 = test system: KM12
NCI-H23 = test system: NCI-H23
Malme-3M = test system: Malme-3M
IGROV-1 = test system: IGROV-1
RXF 393 = test system: RXF 393
K562 = test system: K562
UO-31 = test system: UO-31
HCC 2998 = test system: HCC 2998
A498 = test system: A498
SF-295 = test system: SF-295
A549 = test system: A549
BT-549 = test system: BT-549
MCF7 = test system: MCF7
SNB-75 = test system: SNB-75

CCOC(=O)/C=C1\Nc2ccccc2C12CCc1c([nH]c3ccccc13)C2C(=O)OCC (stereo not drawn)
GI50 (SK-MEL-2): 45.5 µM (inactive) | GI50 (OVCAR-3): 44.2 µM (inactive) | GI50 (HT-29): 9.08 µM (inactive) | GI50 (T47D): 61.2 µM (inactive) | GI50 (SNB-19): > 100 µM (inactive) | GI50 (SF-268): 30.1 µM (inactive) | GI50 (KM12): 20.5 µM (inactive) | GI50 (NCI-H23): 43.5 µM (inactive) | GI50 (Malme-3M): 10.3 µM (inactive) | GI50 (IGROV-1): 8.59 µM (inactive) | GI50 (RXF 393): > 100 µM (inactive) | GI50 (K562): 48.4 µM (inactive) | GI50 (UO-31): 21.3 µM (inactive) | GI50 (HCC 2998): 59.3 µM (inactive) | GI50 (A498): 30.1 µM (inactive) | GI50 (SF-295): 79.4 µM (inactive) | GI50 (A549): 29.7 µM (inactive) | GI50 (BT-549): 52.2 µM (inactive) | GI50 (MCF7): 17.5 µM (inactive)

CC(=O)O[C@H]1CC[C@@]2(C)C(=CC[C@@H]3[C@@H]2CC[C@]2(C)c4nc(Cl)ccc4C[C@@H]32)C1
GI50 (OVCAR-3): 27.9 µM (inactive) | GI50 (HT-29): 36.8 µM (inactive) | GI50 (T47D): 44.6 µM (inactive) | GI50 (SNB-19): 93.8 µM (inactive) | GI50 (SF-268): 49.8 µM (inactive) | GI50 (KM12): 43.3 µM (inactive) | GI50 (NCI-H23): 0.867 µM (active) | GI50 (Malme-3M): 61.1 µM (inactive) | GI50 (IGROV-1): 89.9 µM (inactive) | GI50 (RXF 393): 33.3 µM (inactive) | GI50 (K562): 31.1 µM (inactive) | GI50 (UO-31): 64.6 µM (inactive) | GI50 (HCC 2998): 45 µM (inactive) | GI50 (A498): 87.3 µM (inactive) | GI50 (SF-295): 24.7 µM (inactive) | GI50 (A549): 52 µM (inactive) | GI50 (BT-549): 15.2 µM (inactive) | GI50 (SNB-75): 33.9 µM (inactive) | GI50 (MCF7): 0.944 µM (active)

CC(C)=C1C(=O)C[C@]2(C)C[C@H]3O[C@]3(C)CC[C@@H]3O[C@@]3(C)CC[C@@H]12
GI50 (SK-MEL-2): > 50 µM (inactive) | GI50 (OVCAR-3): > 50 µM (inactive) | GI50 (HT-29): > 50 µM (inactive) | GI50 (T47D): > 50 µM (inactive) | GI50 (SNB-19): > 50 µM (inactive) | GI50 (SF-268): > 50 µM (inactive) | GI50 (KM12): > 50 µM (inactive) | GI50 (NCI-H23): > 50 µM (inactive) | GI50 (IGROV-1): > 50 µM (inactive) | GI50 (RXF 393): > 50 µM (inactive) | GI50 (K562): 44.3 µM (inactive) | GI50 (UO-31): 30.3 µM (inactive) | GI50 (HCC 2998): > 50 µM (inactive) | GI50 (A498): > 50 µM (inactive) | GI50 (SF-295): > 50 µM (inactive) | GI50 (A549): > 50 µM (inactive) | GI50 (BT-549): > 50 µM (inactive) | GI50 (SNB-75): > 50 µM (inactive) | GI50 (MCF7): > 50 µM (inactive)

CC1(C)C(=O)/C(=C/c2ccccc2)C(C)(C)C1(C)C
GI50 (SK-MEL-2): > 43.5 µM (inactive) | GI50 (OVCAR-3): > 39.3 µM (inactive) | GI50 (HT-29): 40.1 µM (inactive) | GI50 (T47D): > 65.3 µM (inactive) | GI50 (SNB-19): > 100 µM (inactive) | GI50 (KM12): 49.9 µM (inactive) | GI50 (NCI-H23): 70.6 µM (inactive) | GI50 (Malme-3M): > 71.3 µM (inactive) | GI50 (IGROV-1): 60.1 µM (inactive) | GI50 (RXF 393): > 100 µM (inactive) | GI50 (K562): 35.2 µM (inactive) | GI50 (UO-31): 52.6 µM (inactive) | GI50 (HCC 2998): > 91.4 µM (inactive) | GI50 (A498): 36.1 µM (inactive) | GI50 (SF-295): > 100 µM (inactive) | GI50 (A549): 57.5 µM (inactive) | GI50 (BT-549): 36.1 µM (inactive) | GI50 (SNB-75): 46.8 µM (inactive) | GI50 (MCF7): 35.2 µM (inactive)

O=c1oc2ccc([N+](=O)[O-])cc2cc1Br
GI50 (SK-MEL-2): > 100 µM (inactive) | GI50 (OVCAR-3): > 100 µM (inactive) | GI50 (HT-29): > 100 µM (inactive) | GI50 (T47D): 70.6 µM (inactive) | GI50 (SNB-19): > 100 µM (inactive) | GI50 (SF-268): 27.4 µM (inactive) | GI50 (KM12): > 100 µM (inactive) | GI50 (NCI-H23): > 100 µM (inactive) | GI50 (Malme-3M): > 100 µM (inactive) | GI50 (IGROV-1): > 100 µM (inactive) | GI50 (RXF 393): 21.7 µM (inactive) | GI50 (K562): > 100 µM (inactive) | GI50 (UO-31): > 100 µM (inactive) | GI50 (HCC 2998): > 100 µM (inactive) | GI50 (A498): > 100 µM (inactive) | GI50 (SF-295): > 100 µM (inactive) | GI50 (A549): > 100 µM (inactive) | GI50 (BT-549): > 100 µM (inactive) | GI50 (MCF7): > 100 µM (inactive)

O=S1(=O)c2ccccc2C(Nc2ccccc2)N1c1ccccc1 (stereo not drawn)
GI50 (SK-MEL-2): 98.6 µM (inactive) | GI50 (OVCAR-3): > 100 µM (inactive) | GI50 (HT-29): > 100 µM (inactive) | GI50 (T47D): 24.5 µM (inactive) | GI50 (SF-268): > 100 µM (inactive) | GI50 (KM12): 72.3 µM (inactive) | GI50 (NCI-H23): > 100 µM (inactive) | GI50 (Malme-3M): > 100 µM (inactive) | GI50 (IGROV-1): 36.9 µM (inactive) | GI50 (RXF 393): > 100 µM (inactive) | GI50 (K562): 27.6 µM (inactive) | GI50 (UO-31): 68.1 µM (inactive) | GI50 (HCC 2998): > 100 µM (inactive) | GI50 (A498): > 100 µM (inactive) | GI50 (SF-295): > 100 µM (inactive) | GI50 (A549): 56.8 µM (inactive) | GI50 (BT-549): 58.9 µM (inactive) | GI50 (SNB-75): > 100 µM (inactive) | GI50 (MCF7): > 100 µM (inactive)

OCC1OC(n2cnc3c(/C=C(/O)c4ccccc4)ncnc32)C(O)C1O (stereo not drawn)
GI50 (SK-MEL-2): 1.01 µM (active) | GI50 (OVCAR-3): 2.77 µM (inactive) | GI50 (HT-29): 3.1 µM (inactive) | GI50 (T47D): 3.03 µM (inactive) | GI50 (SNB-19): 12.4 µM (inactive) | GI50 (SF-268): 5.78 µM (inactive) | GI50 (KM12): 4.62 µM (inactive) | GI50 (NCI-H23): 2.82 µM (inactive) | GI50 (Malme-3M): 5.33 µM (inactive) | GI50 (IGROV-1): 0.927 µM (active) | GI50 (RXF 393): 4.12 µM (inactive) | GI50 (K562): 2.83 µM (inactive) | GI50 (UO-31): 0.92 µM (active) | GI50 (A498): 2.16 µM (inactive) | GI50 (SF-295): 5.13 µM (inactive) | GI50 (A549): 1.29 µM (inactive) | GI50 (BT-549): 6.08 µM (inactive) | GI50 (SNB-75): 0.7 µM (active) | GI50 (MCF7): 3.8 µM (inactive)
